# Measured values taken from patent US20180099937A1, “NOVEL ARYL-CYANOGUANIDINE COMPOUNDS” (Bayer Pharma Aktiengesellschaft, priority 2015, published 2018).
# Assays:
# [1] = molecular target: T1, SMYD2 (Homo sapiens, UniProt Q9NRG4); assay: In Cell Western (ICW) cell-based assay for detection of SMYD2 methylation activity; design: expressed in transfected cells; host or cells: KYSE-150 (human esophageal carcinoma, DSMZ ACC 375); details: SMYD2 overexpressing KYSE-150 cells, 72 h treatment, p53K370me1 signal normalized to DRAQ5; read-out: IC50 [mol/l] (ICW assay)
# T1 sequence (Q9NRG4 whole entry): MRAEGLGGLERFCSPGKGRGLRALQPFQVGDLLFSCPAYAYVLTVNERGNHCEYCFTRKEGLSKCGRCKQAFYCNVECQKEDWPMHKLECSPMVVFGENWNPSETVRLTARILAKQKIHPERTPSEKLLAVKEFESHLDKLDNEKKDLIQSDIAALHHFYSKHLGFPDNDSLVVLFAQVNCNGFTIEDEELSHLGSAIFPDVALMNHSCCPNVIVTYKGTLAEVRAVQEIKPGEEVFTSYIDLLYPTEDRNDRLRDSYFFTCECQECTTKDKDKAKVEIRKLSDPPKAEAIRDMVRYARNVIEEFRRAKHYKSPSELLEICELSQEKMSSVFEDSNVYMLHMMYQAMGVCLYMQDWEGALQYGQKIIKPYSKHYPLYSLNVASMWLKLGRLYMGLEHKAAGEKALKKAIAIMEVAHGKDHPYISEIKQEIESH
# From the text: 1.2 Cell-Based Assay for Detection of SMYD2 methylation Activity
# For the detection of SMYD2 cellular methylation activity an In Cell Western (ICW) assay was established. This assay allows rapid processing of multiple samples for SMYD2 methylation derived immunofluorescence signals, with normalization to cell number via the use of the nucleic acid dye DRAQS. KYSE-150 cells (human esophageal carcinoma cell line; DSMZ-German Collection of Microorganisms and Cell Cultures; No: ACC 375) have been stably transfected with a construct expressing wild-type SMYD2 (NCBI Reference Sequence: NP_064582.2). To detect SMYD2-mediated methylation signals in cells, a customized antibody directed against mono-methylated lysine 370 on protein p53 (p53K370me1) was used. The polyclonal antibody was generated (Eurogentec) against a p53 peptide containing the mono-methylated K370 epitope as described elsewhere (Huang et al., Nature, 2006, 444(7119):629-32).
# For conducting the ICW assay 5000 SMYD2 overexpressing KYSE-150 cells/well were seeded in 96-well plates (SIGMA) and cultivated for 24 h. As a control for maximal inhibition of ectopic methylation activity, non-transfected KYSE-150 cells were used. Cells were grown in 49% RPMI 1640 with 49% Ham's F12 media supplemented with 2% heat inactivated fetal calf serum (FCS). For determination of SMYD2 inhibitory activity, cells were treated for 72 h in the presence of compounds or with DMSO. Cells were treated with compounds to be tested at a final concentration range varying from 3.9×10^−8 to 5×10^−6 M. Media was removed and 3.7% (w/v) formaldehyde in PBS was added for 20 min. After two washes with phosphate buffered saline (PBS), 0.25% (v/v) Triton X100 in PBS was added for 15 minutes of permeabilization. After one washing step with PBS, cells were blocked for 1 h with 5% (w/v) non-fat dry milk in PBS. Fixed cells were exposed to primary […] antibody in 5% non-fat dry milk in PBS for 24 h. One row of cells on each plate was not exposed to p53K370me1 antibody and was reserved for background control measurements. The wells were washed three times with PBS, then secondary IR800 conjugated antibody (LI-COR) and DNA-intercalating dye, 5 μM DRAQ5 (LI-COR) were added for 3 h. After 5 washes with PBS, the fluorescence in each well was measured on an Odyssey (LI-COR) scanner at 800 nm (p53K370me1 signal; 764 nm excitation) and 700 nm (DRAQS signal; 683 nm excitation). Fluorescence intensity was quantified and normalized to background and DRAQ5 signals. IC50 values were calculated by fitting the normalized inhibition data to a 4-parameter logistic equation (Minimum, Maximum, IC50, Hill; Y=Max+(Min−Max)/(1+(X/IC50)Hill)) for each tested compound. For IC50 determination C0 (=no inhibition) was defined as the signal measured for DMSO treated controls. Ci (maximal inhibition) was defined as the signal measured for non SMYD2 overexpressing KYSE150 cells.
# [2] = molecular target: T1, SMYD2; assay: Scintillation Proximity Assay (SPA) for detection of SMYD2 enzymatic inhibition; assay type: biochemical; design: The SMYD2 full length enzyme was produced in-house by expression (with an N-terminal 6× His tag) in E. coli; 6xHis (N); made in house; host or cells: E. coli; details: SMYD2 full length enzyme, p53 Peptide substrate 1.0 μM, 3H-SAM 60 nM; read-out: IC50 [mol/l] (SPA Assay)
# Method in brief: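 Full-length N-His SMYD2 from E. coli (typically 3 nM) was preincubated with compounds (0.1 nM–20 μM) for 15 min, then reacted 30 min at 22° C with 60 nM 3H-SAM and 1.0 μM biotinylated p53 peptide in Tris pH 9.0. Streptavidin SPA beads read methylation, and IC50 came from a 4-parameter fit.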
IC50 [1],IC50 [2],Structure (SMILES)
96.5 nM,30.5 nM,"CCN(C(=O)[C@H]1CCCN1)C1CN(/C(=N\C#N)Nc2ccc(F)c(OC(F)(F)F)c2)N=C1c1ccc(Cl)c(Cl)c1 (single isomer, unassigned) [Example 22.1, N-[1-{N′-Cyano-N-[4-fluoro-3-(trifluoromethoxy)phenyl]carbamimidoyl}-3-(3,4-dichlorophenyl)-4,5-dihydro-1H-pyrazol-4-yl]-N-ethyl-D-prolinamide]"
14.8 nM,10.5 nM,"CCN(C(=O)[C@H]1CCN1)C1CN(/C(=N\C#N)Nc2cccc(OC(F)F)c2)N=C1c1ccc(Cl)c(C)c1 (single isomer, unassigned) [Example 36.1]"
2.55 nM,30 nM,"CCN(C(=O)[C@H]1C[C@@H](F)CN1)C1CN(/C(=N\C#N)Nc2cccc(OC(F)F)c2)N=C1c1ccc(Cl)c(C)c1 (single isomer, unassigned) [Example 38.1]"
